US4870097A, “Pharmaceutical use of derivatives of tryptophan” (priority 1984, dated 1989)

Each compound was assayed on analgesic activity of morphine (assay: Tail Flick Test: increase in the analgesic effect of morphine). Conditions: 10'; compound 10 mg/kg i.p. + morphine 2 mg/kg (row Morphine: alone); ± S.E.
Format: in vivo, rats
Description: Increase in the analgesic effect of analgesic-narcotic drugs in rats in the Tail Flick Test
The method is that described by Harris et al. (J. Pharmacol. Exp. Ther. 143 (1964) 141-148).
Male rats are used which have a weight of about 150-200 g and which have not been fasting. A point is chosen on the tail and this is irradiated by a heat source (75° C.) and the time (in seconds) for which the animal remains without moving its tail is measured.
A maximum period of time under the heat source of 8 seconds is chosen after which the animal is, in any case, removed in order to avoid tissue damage. The measurement is effected before (controls) and after treatment with the drugs.
. The percentage variation is calculated for each individual animal by the following formula: [formula] The measurements are carried out 10, 20, 30, 45, 60 and 90 minutes after treatment with the analgesics.
The results obtained are given in Table 1 which records the groups treated and the doses administered, the
average percentage variations (calculated on groups of five animals) in […]

In order of rising “percentage variation in the latency of the pain sensation, 10'” value:
1. O=C(N[C@@H](Cc1c[nH]c2ccccc12)C(=O)O)OCc1cccc(Cl)c1 [Compound 5]  34.5 ± 13.3%
2. O=C(N[C@@H](Cc1c[nH]c2ccccc12)C(=O)O)OCc1ccc(C(F)(F)F)cc1 [Compound 7]  38.3 ± 13.7%
3. O=C(N[C@@H](Cc1c[nH]c2ccccc12)C(=O)O)OCc1ccc(I)cc1 [Compound 4]  62.8 ± 22.8%
4. O=C(N[C@@H](Cc1c[nH]c2ccccc12)C(=O)O)OCc1ccc(Cl)c(Cl)c1 [Compound 6]  68.6 ± 20.4%
5. O=C(N[C@@H](Cc1c[nH]c2ccccc12)C(=O)O)OCc1ccc(Br)cc1 [Compound 3]  70.7 ± 19.7%

Same assay, conditions: 20'; compound 10 mg/kg i.p. + morphine 2 mg/kg (row Morphine: alone); ± S.E.

In order of falling “percentage variation in the latency of the pain sensation, 20'” value:
1. O=C(N[C@@H](Cc1c[nH]c2ccccc12)C(=O)O)OCc1ccc(Br)cc1 [Compound 3]  90.3 ± 9.7%
2. O=C(N[C@@H](Cc1c[nH]c2ccccc12)C(=O)O)OCc1ccc(Cl)c(Cl)c1 [Compound 6]  78.0 ± 17.9%
3. O=C(N[C@@H](Cc1c[nH]c2ccccc12)C(=O)O)OCc1ccc(I)cc1 [Compound 4]  76.9 ± 14.4%
4. O=C(N[C@@H](Cc1c[nH]c2ccccc12)C(=O)O)OCc1cccc(Cl)c1 [Compound 5]  53.0 ± 24.8%
5. O=C(N[C@@H](Cc1c[nH]c2ccccc12)C(=O)O)OCc1ccc(C(F)(F)F)cc1 [Compound 7]  34.4 ± 5.7%

Same assay, conditions: 30'; compound 10 mg/kg i.p. + morphine 2 mg/kg (row Morphine: alone); ± S.E.

In order of falling “percentage variation in the latency of the pain sensation, 30'” value:
1. O=C(N[C@@H](Cc1c[nH]c2ccccc12)C(=O)O)OCc1ccc(I)cc1 [Compound 4]  85.3 ± 13.9%
2. O=C(N[C@@H](Cc1c[nH]c2ccccc12)C(=O)O)OCc1ccc(Cl)c(Cl)c1 [Compound 6]  80.4 ± 19.6%
3. O=C(N[C@@H](Cc1c[nH]c2ccccc12)C(=O)O)OCc1ccc(Br)cc1 [Compound 3]  74.7 ± 16.9%
4. O=C(N[C@@H](Cc1c[nH]c2ccccc12)C(=O)O)OCc1cccc(Cl)c1 [Compound 5]  62.5 ± 16.6%
5. O=C(N[C@@H](Cc1c[nH]c2ccccc12)C(=O)O)OCc1ccc(C(F)(F)F)cc1 [Compound 7]  44.4 ± 14.8%

Same assay, conditions: 45'; compound 10 mg/kg i.p. + morphine 2 mg/kg (row Morphine: alone); ± S.E.

In order of rising “percentage variation in the latency of the pain sensation, 45'” value:
1. O=C(N[C@@H](Cc1c[nH]c2ccccc12)C(=O)O)OCc1ccc(C(F)(F)F)cc1 [Compound 7]  48.3 ± 14.6%
2. O=C(N[C@@H](Cc1c[nH]c2ccccc12)C(=O)O)OCc1cccc(Cl)c1 [Compound 5]  50.5 ± 17.6%
3. O=C(N[C@@H](Cc1c[nH]c2ccccc12)C(=O)O)OCc1ccc(I)cc1 [Compound 4]  56.4 ± 18.2%
4. O=C(N[C@@H](Cc1c[nH]c2ccccc12)C(=O)O)OCc1ccc(Cl)c(Cl)c1 [Compound 6]  84.5 ± 11.4%
5. O=C(N[C@@H](Cc1c[nH]c2ccccc12)C(=O)O)OCc1ccc(Br)cc1 [Compound 3]  86.2 ± 11.0%

Same assay, conditions: 60'; compound 10 mg/kg i.p. + morphine 2 mg/kg (row Morphine: alone); ± S.E.

In order of rising “percentage variation in the latency of the pain sensation, 60'” value:
1. O=C(N[C@@H](Cc1c[nH]c2ccccc12)C(=O)O)OCc1cccc(Cl)c1 [Compound 5]  43.7 ± 10.1%
2. O=C(N[C@@H](Cc1c[nH]c2ccccc12)C(=O)O)OCc1ccc(C(F)(F)F)cc1 [Compound 7]  47.2 ± 16.9%
3. O=C(N[C@@H](Cc1c[nH]c2ccccc12)C(=O)O)OCc1ccc(I)cc1 [Compound 4]  48.1 ± 16.9%
4. O=C(N[C@@H](Cc1c[nH]c2ccccc12)C(=O)O)OCc1ccc(Cl)c(Cl)c1 [Compound 6]  76.3 ± 13.8%
5. O=C(N[C@@H](Cc1c[nH]c2ccccc12)C(=O)O)OCc1ccc(Br)cc1 [Compound 3]  100.0 ± 0.0%

Same assay, conditions: 90'; compound 10 mg/kg i.p. + morphine 2 mg/kg (row Morphine: alone); ± S.E.

In order of rising “percentage variation in the latency of the pain sensation, 90'” value:
1. O=C(N[C@@H](Cc1c[nH]c2ccccc12)C(=O)O)OCc1ccc(I)cc1 [Compound 4]  19.4 ± 11.1%
2. O=C(N[C@@H](Cc1c[nH]c2ccccc12)C(=O)O)OCc1ccc(C(F)(F)F)cc1 [Compound 7]  47.9 ± 15.4%
3. O=C(N[C@@H](Cc1c[nH]c2ccccc12)C(=O)O)OCc1cccc(Cl)c1 [Compound 5]  52.2 ± 22.2%
4. O=C(N[C@@H](Cc1c[nH]c2ccccc12)C(=O)O)OCc1ccc(Br)cc1 [Compound 3]  53.7 ± 17.2%
5. O=C(N[C@@H](Cc1c[nH]c2ccccc12)C(=O)O)OCc1ccc(Cl)c(Cl)c1 [Compound 6]  71.9 ± 15.2%

Same assay, conditions: mean 10'-90'; compound 10 mg/kg i.p. + morphine 2 mg/kg (row Morphine: alone)

In order of rising “M(10'-90') average percentage variation” value:
1. O=C(N[C@@H](Cc1c[nH]c2ccccc12)C(=O)O)OCc1ccc(C(F)(F)F)cc1 [Compound 7]  43.4%
2. O=C(N[C@@H](Cc1c[nH]c2ccccc12)C(=O)O)OCc1cccc(Cl)c1 [Compound 5]  50.9%
3. O=C(N[C@@H](Cc1c[nH]c2ccccc12)C(=O)O)OCc1ccc(I)cc1 [Compound 4]  58.2%
4. O=C(N[C@@H](Cc1c[nH]c2ccccc12)C(=O)O)OCc1ccc(Cl)c(Cl)c1 [Compound 6]  78.6%
5. O=C(N[C@@H](Cc1c[nH]c2ccccc12)C(=O)O)OCc1ccc(Br)cc1 [Compound 3]  79.3%

Same assay, conditions: rat, in vivo

In order of falling “Potency ratio relative to morphine alone” value:
1. O=C(N[C@@H](Cc1c[nH]c2ccccc12)C(=O)O)OCc1ccc(Br)cc1 [Compound 3]  2.66
2. O=C(N[C@@H](Cc1c[nH]c2ccccc12)C(=O)O)OCc1ccc(Cl)c(Cl)c1 [Compound 6]  2.57
3. O=C(N[C@@H](Cc1c[nH]c2ccccc12)C(=O)O)OCc1ccc(I)cc1 [Compound 4]  1.95
4. O=C(N[C@@H](Cc1c[nH]c2ccccc12)C(=O)O)OCc1cccc(Cl)c1 [Compound 5]  1.71
5. O=C(N[C@@H](Cc1c[nH]c2ccccc12)C(=O)O)OCc1ccc(C(F)(F)F)cc1 [Compound 7]  1.45

What follows are compounds tested on guinea pig gall bladder contracted with CCK-8 (assay: Anti-CCK activity on guinea pig gall bladders in vitro). Conditions: CCK-8 10 ng/ml, concentration antagonising 50% of contracting effect.
Format: biochemical
Description: A longitudinal strip of guinea pig gall bladder is placed in a bath of Krebs for isolated organs at a temperature of 32° C. and oxygenated continuously with an oxygen-CO2 mixture (95-5 V/V).
The […] contractions are detected by means of a force transducer and recorded.
The gall bladder is contracted with the use of a CCK-8 solution at a concentration of 10 ng/ml; the antagonistic activity of the compounds of the invention towards the contracting effect of the CCK is determined with the use of different concentrations, the ED50 value, that is the concentration of the compound in mcg/ml capable of antagonising 50% of the contracting effect of the CCK, being determined.
The results obtained are set out in the following table which gives the compounds tested and the ED50 values which are calculated by the method of regression on a test of at least three experiments for each compound studied.

In order of rising “Anti CCK-8 activity, ED50” value:
1. O=C(N[C@@H](Cc1c[nH]c2ccccc12)C(=O)O)OCc1ccc(Cl)c(Cl)c1 [Compound 6]  16.1 µg/mL
2. O=C(N[C@@H](Cc1c[nH]c2ccccc12)C(=O)O)OCc1cccc(Cl)c1 [Compound 5]  23.2 µg/mL
3. O=C(N[C@@H](Cc1c[nH]c2ccccc12)C(=O)O)OCc1ccc(Br)cc1 [Compound 3]  33.6 µg/mL
4. O=C(N[C@@H](Cc1c[nH]c2ccccc12)C(=O)O)OCc1ccc(I)cc1 [Compound 4]  48.2 µg/mL
5. O=C(N[C@@H](Cc1c[nH]c2ccccc12)C(=O)O)OCc1ccc(C(F)(F)F)cc1 [Compound 7]  108.7 µg/mL
